For orientation: % Inhibition means the change of the read-out against control, counted positive when it falls. In general, inhibition refers to the relative decrease from the control value, in per cent.

For test [1], the system named is Neurotensin, Non-Selective. In words: Radioligand binding panel (Table S1). Also noted: species or system mouse. The conditions noted are these: 10 μM T1-11, n 2.
For test [2], the target named is T1, Serotonin (5-Hydroxytryptamine) 5-HT5A (Homo sapiens, UniProt P47898).
T1 construct: purchased MDS Pharma Services Taiwan
T1 sequence (P47898 whole entry): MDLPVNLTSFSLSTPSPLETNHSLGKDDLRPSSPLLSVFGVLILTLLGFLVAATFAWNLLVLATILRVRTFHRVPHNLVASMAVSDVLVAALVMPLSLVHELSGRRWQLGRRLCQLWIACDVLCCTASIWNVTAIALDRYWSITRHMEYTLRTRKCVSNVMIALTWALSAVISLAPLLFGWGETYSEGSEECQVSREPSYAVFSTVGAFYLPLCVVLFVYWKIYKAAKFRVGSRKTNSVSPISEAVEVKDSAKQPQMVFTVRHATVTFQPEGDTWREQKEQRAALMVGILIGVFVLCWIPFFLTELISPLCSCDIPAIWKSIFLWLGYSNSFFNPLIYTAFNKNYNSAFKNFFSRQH
Description: Radioligand binding panel (Table S1). The conditions noted are these: 10 μM T1-11, n 2.

Test [3] relates to Serotonin (5-Hydroxytryptamine) 5-HT2, Non-Selective. Description: Radioligand binding panel (Table S1). Also noted: species or system rat. The conditions noted are these: 10 μM T1-11, n 2.
Another test has as its target T2, APJ (Homo sapiens, UniProt P35414).
T2 construct: purchased MDS Pharma Services Taiwan
In words: Radioligand binding panel (Table S1). Conditions: 10 μM T1-11, n 2.

A further test deals with Colchicine. In words: Radioligand binding panel (Table S1). Also noted: species or system rat. The conditions noted are these: 10 μM T1-11, n 2. The procedure: Radoligand binding assays were performed by MDS Pharma Services Taiwan (Taipei, Taiwan) using standard binding protocols. For the binding assay of the A2AR [67], membrane proteins collected from HEK293 cells overexpressing the human A2AR were incubated in reaction buffer [50 mM Tris-HCl (pH 7.4), 10 mM MgCl2, 1 mM EDTA, and 2 U/mL adenosine deaminase] containing ^3H-CGS21680 (50 nM) for 90 min at 25°C. Nonspecific binding was assessed in the presence of 50 µM adenosine- 5′-N-ethylcarboxamide. […] Nonspecific binding was assessed in the presence of 1 µM IB-MECA (Tocris Bioscience, Ellisville, MS, USA).

In test [4] the target is T3, Cholecystokinin CCK. (CCKA) (Homo sapiens, UniProt P32238).
T3 construct: purchased MDS Pharma Services Taiwan
T3 sequence (P32238 whole entry): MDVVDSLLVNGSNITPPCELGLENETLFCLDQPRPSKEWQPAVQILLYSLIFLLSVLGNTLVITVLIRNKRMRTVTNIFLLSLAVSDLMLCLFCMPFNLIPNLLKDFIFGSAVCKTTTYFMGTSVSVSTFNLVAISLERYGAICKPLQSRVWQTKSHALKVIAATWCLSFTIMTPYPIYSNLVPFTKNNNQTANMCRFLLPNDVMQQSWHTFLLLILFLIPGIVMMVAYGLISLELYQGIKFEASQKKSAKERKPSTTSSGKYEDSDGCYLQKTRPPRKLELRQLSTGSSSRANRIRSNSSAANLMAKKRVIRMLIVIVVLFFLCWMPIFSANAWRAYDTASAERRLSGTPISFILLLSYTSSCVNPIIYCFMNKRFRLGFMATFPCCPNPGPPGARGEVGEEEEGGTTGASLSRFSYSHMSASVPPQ
Description: Radioligand binding panel (Table S1). Conditions: 10 μM T1-11, n 2.

The target in another test is T4, Chemokine CCR5 (Homo sapiens, UniProt P51681).
T4 construct: purchased MDS Pharma Services Taiwan
T4 sequence (P51681 whole entry): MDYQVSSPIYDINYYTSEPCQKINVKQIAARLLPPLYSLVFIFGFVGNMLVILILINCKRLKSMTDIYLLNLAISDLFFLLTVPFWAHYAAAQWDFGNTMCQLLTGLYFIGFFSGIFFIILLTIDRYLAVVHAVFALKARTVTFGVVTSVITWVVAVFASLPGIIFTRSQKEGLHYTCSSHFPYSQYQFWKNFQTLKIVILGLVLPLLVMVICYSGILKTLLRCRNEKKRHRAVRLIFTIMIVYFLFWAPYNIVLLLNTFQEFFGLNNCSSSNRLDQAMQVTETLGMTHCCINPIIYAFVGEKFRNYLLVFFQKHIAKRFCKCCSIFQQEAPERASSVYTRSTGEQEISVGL
Description: Radioligand binding panel (Table S1). Conditions: 10 μM T1-11, n 2.

The next test deals with T5, Erythropoietin EPOR (Homo sapiens, UniProt P19235).
T5 construct: purchased MDS Pharma Services Taiwan
T5 sequence (P19235 25-508): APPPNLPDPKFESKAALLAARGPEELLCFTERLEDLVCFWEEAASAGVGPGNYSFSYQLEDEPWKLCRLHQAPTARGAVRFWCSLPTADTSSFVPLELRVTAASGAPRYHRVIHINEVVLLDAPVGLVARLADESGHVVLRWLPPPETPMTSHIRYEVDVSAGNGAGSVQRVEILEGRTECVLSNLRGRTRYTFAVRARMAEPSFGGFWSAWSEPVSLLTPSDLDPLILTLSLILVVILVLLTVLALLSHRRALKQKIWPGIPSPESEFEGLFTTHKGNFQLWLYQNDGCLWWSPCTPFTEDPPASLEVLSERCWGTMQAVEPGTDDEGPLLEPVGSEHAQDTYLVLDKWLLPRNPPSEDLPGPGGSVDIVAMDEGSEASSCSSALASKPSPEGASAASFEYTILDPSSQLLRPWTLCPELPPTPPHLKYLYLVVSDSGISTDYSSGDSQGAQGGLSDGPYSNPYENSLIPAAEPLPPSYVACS
In words: Radioligand binding panel (Table S1). Conditions: 10 μM T1-11, n 2.

The subject of a further test is mutant Htt aggregates. Description: Striatal Htt aggregates (filter retardation assay, immunofluorescence). The conditions noted are these: R6/2 mice, 12 weeks old, 0.05 mg/ml in drinking water. Format: in vivo. The procedure: SDS-insoluble mutant Htt aggregates were detected and quantified as described. A filter retardation assay was performed as described previously. Blots were blocked with 5% skim milk in phosphate-buffered saline (PBS) and incubated with an anti-Htt antibody (EM48, 1∶500; Chemicon International, Temecula, CA, USA) at 4°C overnight followed by the corresponding secondary antibody for 1 h at room temperature. Immunoreactive bands were detected by enhanced chemiluminescence (Pierce) and recorded using Kodak XAR-5 film.
Coronal serial sections (20 µm) containing the striatum (interaural 5.34 mm/bregma 1.54 mm to interaural 3.7 mm/bregma −0.1 mm) were immunohistochemically stained as described previously. Brain sections were blocked with normal goat serum and incubated overnight with an anti-Htt antibody (EM48, 1∶500) at 4°C, followed by a 2 h-incubation with a goat anti-mouse IgG conjugated to Alexa Fluor® 568 at room temperature. The nuclei were stained with Hoechst 33258. The patterns of immunostaining were analyzed with a laser confocal microscope (LSM510, Carl Zeiss MicroImaging Inc, Germany). Five different brain sections of each animal were analyzed. At least 2000 cells from each animal were used to quantify the sizes of mHtt aggregates using ImageJ software (http://rsbweb.nih.gov/ij/; Research Services Branch of the National Institute of Mental Health, Bethesda, MD, USA).

The next test concerns the target T6, Histamine H3 (Homo sapiens, UniProt Q9Y5N1).
T6 construct: purchased MDS Pharma Services Taiwan
Description: Radioligand binding panel (Table S1). Conditions: 10 μM T1-11, n 2.

The target of a further test is T7, Somatostatin sst3 (Homo sapiens, UniProt P32745).
T7 construct: purchased MDS Pharma Services Taiwan
T7 sequence (P32745 whole entry): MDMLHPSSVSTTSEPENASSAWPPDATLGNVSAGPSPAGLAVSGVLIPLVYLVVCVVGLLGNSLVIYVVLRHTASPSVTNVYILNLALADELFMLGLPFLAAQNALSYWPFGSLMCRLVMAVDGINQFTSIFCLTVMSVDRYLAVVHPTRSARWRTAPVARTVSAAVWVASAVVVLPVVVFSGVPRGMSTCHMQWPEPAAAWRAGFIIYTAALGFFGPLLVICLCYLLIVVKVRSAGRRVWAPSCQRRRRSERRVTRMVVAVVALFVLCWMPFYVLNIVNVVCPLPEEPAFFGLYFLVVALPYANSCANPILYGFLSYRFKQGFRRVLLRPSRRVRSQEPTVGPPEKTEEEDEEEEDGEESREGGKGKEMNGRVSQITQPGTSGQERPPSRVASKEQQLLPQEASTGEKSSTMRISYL
In words: Radioligand binding panel (Table S1). Conditions: 10 μM T1-11, n 2.

A further test addresses T8, Transporter, GABA (Rattus norvegicus, UniProt P23978).
T8 construct: purchased MDS Pharma Services Taiwan
Description: Radioligand binding panel (Table S1). The conditions noted are these: 10 μM T1-11, n 2.

In a further test the target is T9, Neuropeptide Y Y2 (Homo sapiens, UniProt P49146).
T9 construct: purchased MDS Pharma Services Taiwan
T9 sequence (P49146 whole entry): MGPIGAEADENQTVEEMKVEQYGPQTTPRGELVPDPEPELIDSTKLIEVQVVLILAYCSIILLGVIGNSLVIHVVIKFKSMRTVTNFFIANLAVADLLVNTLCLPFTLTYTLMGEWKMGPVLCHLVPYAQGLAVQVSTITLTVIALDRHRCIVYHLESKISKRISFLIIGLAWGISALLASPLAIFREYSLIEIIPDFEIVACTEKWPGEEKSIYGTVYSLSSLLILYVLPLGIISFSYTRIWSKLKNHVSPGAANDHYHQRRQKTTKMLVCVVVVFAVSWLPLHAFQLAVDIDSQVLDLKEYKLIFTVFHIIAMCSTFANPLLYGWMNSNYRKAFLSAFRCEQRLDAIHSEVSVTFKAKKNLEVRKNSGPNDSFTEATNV
In words: Radioligand binding panel (Table S1). Conditions: 10 μM T1-11, n 2.

In another test the test system is PC12 cells. In words: MTT metabolism assay, serum-deprived PC12 cells. Type of test: cell-based, rat. Conditions: 24 h. The procedure: Survival was assessed by the 3-(4,5-dimethylthiazol-2-yl)-2,5-diphenyltetrazolium bromide (MTT) metabolism assay as described elsewhere, [65]. In brief, cells grown on 150-mm plates were washed three times with PBS and resuspended in DMEM. Suspended cells (1×10^4 cells) were plated on 96-well plates and treated with or without the indicated reagent. After incubation for 24 h, MTT (0.5 mg/ml) was added to the medium and incubated for 3 h. After discarding the medium, DMSO (100 µl) was then applied to the well to dissolve the formazan crystals derived from the mitochondrial cleavage of the tetrazolium ring by live cells. The absorbance at 570/630 nm in each well was measured on a micro-enzyme-linked immunosorbent assay reader.

A further test relates to striatal adenosine. Description: In vivo brain dialysis and adenosine measurement. Also noted: species or system mice. Conditions: T1-11 100 µM perfused through the dialysis probe. The procedure: The level of adenosine in the brain was determined using microdialysis as previously described, [73]. In brief, concentrated dialysis probes with 4-mm dialysis membranes (CMA, Stockholm, Sweden) were used to monitor the extracellular adenosine in the striatum of rats. After inducing anesthesia with chloral hydrate ([…], IP), rats were implanted with the probe, and the coordinates for implantation were AP +1.0 mm, LM +2.8 mm, and VD −6.5 mm. Ringer's solution (140 mM NaCl, 1.2 mM CaCl2, 3.0 mM KCl, 1.0 mM MgCl2, and 0.04 mM ascorbic acid) was continuously perfused (0.5 µl/min) via probes throughout the experiments. After implantation and perfusion for 1.5 h, the perfusate was collected for 1 h as a baseline and then Ringer's solution containing T1-11 (100 µM) was perfused for another 1 h. The perfusate was analyzed by high-performance liquid chromatography (HPLC; Agilent 1100 series, Germany) coupled with a photo diode array detector (Agilent G1315B,) at 260 nm. Separations were obtained with a reversed-phase column (Cosmosil 5C18-AR-II, 250×4.6 mm, Kyoto, Japan) eluted at a flow rate of 1.0 ml/min with a linear solvent gradient elution system composed of eluents A and B (A: 0.0085% H3PO4 in H2O; B: 100% acetonitrile) according to the following profile: 0∼15 min, 100%∼90% A, 0%∼10% B.

The next test deals with T10, Dopamine D1 (Homo sapiens, UniProt P21728).
T10 construct: purchased MDS Pharma Services Taiwan
T10 sequence (P21728 whole entry): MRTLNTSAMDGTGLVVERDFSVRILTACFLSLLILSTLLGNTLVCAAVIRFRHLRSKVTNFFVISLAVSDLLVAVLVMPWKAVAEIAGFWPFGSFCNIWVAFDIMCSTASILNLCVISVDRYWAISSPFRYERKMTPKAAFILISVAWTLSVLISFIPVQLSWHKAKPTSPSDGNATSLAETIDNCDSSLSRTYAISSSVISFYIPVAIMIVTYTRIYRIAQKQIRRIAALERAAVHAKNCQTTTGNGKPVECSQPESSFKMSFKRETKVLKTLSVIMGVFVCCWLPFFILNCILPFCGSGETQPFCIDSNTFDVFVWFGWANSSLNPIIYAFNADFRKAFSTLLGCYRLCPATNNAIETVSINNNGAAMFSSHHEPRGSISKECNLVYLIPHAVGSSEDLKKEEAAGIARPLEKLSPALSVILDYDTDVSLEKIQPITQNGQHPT
In words: Radioligand binding panel (Table S1). The conditions noted are these: 10 μM T1-11, n 2.

For a further test, the target named is T11, Adrenergic α 2C (Homo sapiens, UniProt P18825).
T11 construct: purchased MDS Pharma Services Taiwan
Description: Radioligand binding panel (Table S1). Conditions: 10 μM T1-11, n 2.

The test system of test [5] is GABAA, Benzodiazepine, Central, Ro-15-1788. In words: Radioligand binding panel (Table S1). Also noted: species or system rat. Conditions: 10 μM T1-11, n 2.
The target of a further test is T12, Somatostatin sst1 (Homo sapiens, UniProt P30872).
T12 construct: purchased MDS Pharma Services Taiwan
T12 sequence (P30872 whole entry): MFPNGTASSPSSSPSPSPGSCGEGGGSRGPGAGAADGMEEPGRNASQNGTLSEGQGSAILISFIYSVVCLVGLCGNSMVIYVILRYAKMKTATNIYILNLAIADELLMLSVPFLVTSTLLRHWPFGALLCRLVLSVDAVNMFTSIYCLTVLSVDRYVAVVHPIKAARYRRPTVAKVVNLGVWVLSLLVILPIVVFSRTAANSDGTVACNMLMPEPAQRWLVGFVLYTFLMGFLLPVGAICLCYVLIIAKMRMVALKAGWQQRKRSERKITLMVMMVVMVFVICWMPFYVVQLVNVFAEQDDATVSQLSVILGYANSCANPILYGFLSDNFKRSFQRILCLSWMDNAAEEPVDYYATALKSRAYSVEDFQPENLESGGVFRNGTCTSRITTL
Description: Radioligand binding panel (Table S1). The conditions noted are these: 10 μM T1-11, n 2.

The next test addresses T13, Vanilloid (Rattus norvegicus, UniProt O35433).
T13 construct: purchased MDS Pharma Services Taiwan
In words: Radioligand binding panel (Table S1). The conditions noted are these: 10 μM T1-11, n 2.

T2 sequence (P35414 whole entry): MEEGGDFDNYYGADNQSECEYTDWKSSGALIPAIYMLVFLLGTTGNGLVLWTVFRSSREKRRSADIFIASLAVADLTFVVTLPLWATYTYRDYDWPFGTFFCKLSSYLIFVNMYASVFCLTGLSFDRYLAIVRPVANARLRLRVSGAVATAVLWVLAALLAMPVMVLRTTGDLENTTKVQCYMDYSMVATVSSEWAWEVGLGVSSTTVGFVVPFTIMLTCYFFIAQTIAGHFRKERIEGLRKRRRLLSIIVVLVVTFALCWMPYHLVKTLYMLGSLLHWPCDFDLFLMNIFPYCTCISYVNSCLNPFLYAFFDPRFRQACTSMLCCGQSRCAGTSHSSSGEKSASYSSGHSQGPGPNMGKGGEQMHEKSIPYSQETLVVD
T6 sequence (Q9Y5N1 whole entry): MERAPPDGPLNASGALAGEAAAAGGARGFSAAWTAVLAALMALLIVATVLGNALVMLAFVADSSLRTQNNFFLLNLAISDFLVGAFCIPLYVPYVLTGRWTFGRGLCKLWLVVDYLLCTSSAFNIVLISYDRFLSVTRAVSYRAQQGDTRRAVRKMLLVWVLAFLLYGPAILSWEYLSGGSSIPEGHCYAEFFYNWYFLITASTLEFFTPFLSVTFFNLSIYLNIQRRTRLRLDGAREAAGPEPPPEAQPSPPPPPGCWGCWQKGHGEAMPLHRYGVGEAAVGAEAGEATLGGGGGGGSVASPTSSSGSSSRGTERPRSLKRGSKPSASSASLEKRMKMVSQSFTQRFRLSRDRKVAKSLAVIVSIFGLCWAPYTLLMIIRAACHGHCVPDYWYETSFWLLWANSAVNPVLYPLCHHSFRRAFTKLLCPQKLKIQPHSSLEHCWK

In the case of `OC[C@H]1O[C@@H](n2cnc3c(NCc4ccc(O)cc4)ncnc32)[C@H](O)[C@@H]1O` [T1-11, N ^6-(4-hydroxybenzyl)adenine riboside], the “% Inhibition” value in test [1] was 15%; in test [3], 15%; with Colchicine, -2%; in [5], 1%. Moreover, the inhibition at 10 µM in test [2] was -7%; on APJ, 21%; in test [4] it was -3%; at Chemokine CCR5, -8%; at Erythropoietin EPOR it was 3%; on Histamine H3, 4%. In addition, the inhibition at 10 µM on Somatostatin sst3 was 15%; on Transporter, GABA, 8%; at Neuropeptide Y Y2 it was 4%; on Dopamine D1 it was -13%; at Adrenergic α 2C it was 10%; at Somatostatin sst1 it was -3%. On Vanilloid, the inhibition at 10 µM was determined as 8%. The “Formation of striatal Htt aggregates” value with mutant Htt aggregates is given as “markedly reduced the formation of striatal Htt aggregates”. For the same compound, the “Protection against serum withdrawal-induced cell death (MTT)” value with PC12 cells is “protected against serum withdrawal-induced cell death in a dose-dependent manner”. Further, the “Level of striatal adenosine (microdialysis)” value in the test with striatal adenosine is reported as “significantly enhanced the level of striatal adenosine”.

The record behind these values is publication PMC3119665, “A New Drug Design Targeting the Adenosinergic System for Huntington's Disease” (PLoS ONE, 2011).
